The source of these data is patent US7951815B2, “Substituted 1,4,8-triazaspiro [4,5]decan-2-one compounds” (Gruenenthal GmbH, priority 2004, dated 2011).

The structures appear in SMILES notation. Where a name gives a salt, the structure may show the parent alone. Read-outs that look alike come from different tables or passages of the source.

The target in this test is T1, 5-HT transporter (Rattus norvegicus, UniProt P31652).
T1 construct: synaptosomes of rat brain areas are freshly isolated; from tissue; host or cells: rat brain synaptosomes (P2 fraction) from marrow and pons
Put plainly: Inhibition of 5-HT uptake in rat brain synaptosomes. The conditions noted are these: for inhibition at 1 µM: read-out: Uptake 5-HT, % inhibition, rat. The format is biochemical.

T1 sequence (P31652 whole entry): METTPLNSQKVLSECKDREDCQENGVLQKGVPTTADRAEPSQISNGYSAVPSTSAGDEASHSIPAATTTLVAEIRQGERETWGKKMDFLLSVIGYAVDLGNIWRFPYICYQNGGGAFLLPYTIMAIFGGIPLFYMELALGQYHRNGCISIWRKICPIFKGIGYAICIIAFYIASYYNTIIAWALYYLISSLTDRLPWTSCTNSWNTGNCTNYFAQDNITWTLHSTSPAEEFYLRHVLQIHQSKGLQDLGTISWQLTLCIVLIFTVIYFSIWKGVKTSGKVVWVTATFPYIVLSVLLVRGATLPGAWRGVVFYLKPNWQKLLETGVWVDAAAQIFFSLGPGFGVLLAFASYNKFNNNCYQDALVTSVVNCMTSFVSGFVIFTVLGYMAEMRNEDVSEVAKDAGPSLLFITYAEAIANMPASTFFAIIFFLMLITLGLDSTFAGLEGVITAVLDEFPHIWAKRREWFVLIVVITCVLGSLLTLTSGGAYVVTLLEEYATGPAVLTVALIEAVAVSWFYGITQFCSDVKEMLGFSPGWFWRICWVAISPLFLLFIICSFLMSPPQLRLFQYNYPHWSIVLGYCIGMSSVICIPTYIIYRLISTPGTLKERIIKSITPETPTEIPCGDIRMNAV

Turning to `NCCc1c[nH]c2ccc(O)cc12` [Example 5-HT, reference compound], the Km (characteristic data of the 5-HT transporter, rat synaptosomes) worked out at 0.084 ± 0.011 µM.

Turning to `CCC(CC)C(=O)N1CCC2(CC1)NC(CCSC)C(=O)N2Cc1ccccc1` (stereo not drawn) [Example 33, 1-benzyl-8-(2-ethylbutyryl)-3-(2-methylsulfanylethyl)-1,4,8-triazaspiro[4,5]decan-2-one hydrochloride], the inhibition at 1 µM (Table II) was 49%.

On to `COc1ccc(C(=O)N2CCC3(CC2)NC(CCSC)C(=O)N3C)c(OC)c1` (stereo not drawn) [Example 67, 8-(2,4-Dimethoxybenzoyl)-1-methyl-3-(2-methylsulfanylethyl)-1,4,8-triazaspiro[4,5]decan-2-one], for which, under “Table III”, the inhibition at 1 µM was determined as 46%.

As to `CCC(CC)C(=O)N1CCC2(CC1)NCC(=O)N2Cc1ccccc1C#N` [Example 68, 2-[8-(2-Ethylbutyryl)-2-oxo-1,4,8-triazaspiro[4,5]dec-1-ylmethyl]benzonitrile], the inhibition at 1 µM (Table III) was 75%.

As to `CCOC(=O)CC(=O)N1CCC2(CC1)NCC(=O)N2CCOc1ccccc1` [Example 74, Ethyl 3-oxo-3-[2-oxo-1-(2-phenoxyethyl)-1,4,8-triazaspiro[4,5]dec-8-yl]propionate], the inhibition at 1 µM (Table III) amounted to 47%.

Regarding `C#CCN1C(=O)C(Cc2ccccc2)NC12CCN(C(=O)COC)CC2` (stereo not drawn) [Example 81, 3-Benzyl-8-(2-methoxyacetyl)-1-prop-2-ynyl-1,4,8-triazaspiro[4,5]decan-2-one], the inhibition at 1 µM (Table III) worked out at 43%.

With `O=C1NC2(CCN(C(=O)c3ccccc3Cl)CC2)NC1Cc1ccccc1` (stereo not drawn) [Example 84, 3-Benzyl-8-(2-chlorobenzoyl)-1,4,8-triazaspiro[4,5]decan-2-one], the inhibition at 1 µM (Table III) was 64%.

As to `CC(C)=CCN1C(=O)C(C(C)C)NC12CCN(C(=O)c1ccncc1)CC2` (stereo not drawn) [Example 87, 3-Isopropyl-1-(3-methylbut-2-enyl)-8-(pyridin-4-carbonyl)-1,4,8-triazaspiro[4,5]decan-2-one], the inhibition at 1 µM (Table III) stood at 56%.

As to `CC(C)(C)CC(=O)N1CCC2(CC1)NC(=O)C(Cc1ccccc1)N2` (stereo not drawn) [Example 110, 3-Benzyl-8-(3,3-dimethylbutyryl)-1,4,8-triazaspiro[4,5]decan-2-one], under “Table III”, the inhibition at 1 µM was determined as 33%.

For the compound `COCCOCC(=O)N1CCC2(CC1)NC(CCSC)C(=O)N2Cc1ccccc1C#N` (stereo not drawn) [Example 114, 2-[8-[2-(2-Methoxyethoxy)acetyl]-3-(2-methylsulfanylethyl)-2-oxo-1,4,8-triazaspiro[4,5]dec-1-ylmethyl]benzonitrile], the inhibition at 1 µM (Table III) was found to be 53%.

With `Cc1cc(C(=O)N2CCC3(CC2)NC(=O)C(C(C)C)N3)ccc1Br` (stereo not drawn) [Example 130, 8-(4-Bromo-3-methylbenzoyl)-3-isopropyl-1,4,8-triazaspiro[4,5]decan-2-one], under “Table III”, the inhibition at 1 µM amounted to 32%.

Take `CSc1ncccc1C(=O)N1CCC2(CC1)NC(Cc1ccccc1)C(=O)N2C` (stereo not drawn) [Example 143, 3-Benzyl-1-methyl-8-(2-methylsulfanylpyridin-3-carbonyl)-1,4,8-triazaspiro[4,5]decan-2-one]: the inhibition at 1 µM (Table III) was found to be 42%.

Take `CCCCN1C(=O)C(CCSC)NC12CCN(C(=O)c1ccc(OC)cc1)CC2` (stereo not drawn) [Example 144, 1-Butyl-8-(4-methoxybenzoyl)-3-(2-methylsulfanylethyl)-1,4,8-triazaspiro[4,5]decan-2-one]: the inhibition at 1 µM (Table III) turned out to be 51%.

For the compound `CSCCC1NC2(CCN(C(=O)c3ccco3)CC2)N(Cc2ccc(F)cc2)C1=O` (stereo not drawn) [Example 147, 1-(4-Fluorobenzyl)-8-(furan-2-carbonyl)-3-(2-methylsulfanylethyl)-1,4,8-triazaspiro[4,5]decan-2-one], the inhibition at 1 µM (Table III) stood at 45%.

Turning to `C#CCN1C(=O)C(CCSC)NC12CCN(C(=O)C1CCC1)CC2` (stereo not drawn) [Example 152, 8-Cyclobutanecarbonyl-3-(2-methylsulfanylethyl)-1-prop-2-ynyl-1,4,8-triazaspiro[4,5]decan-2-one], for the setting “Table III”, the inhibition at 1 µM was 56%.

For `CCCCN1C(=O)C(Cc2ccccc2)NC12CCN(C(=O)c1ccco1)CC2` (stereo not drawn) [Example 153, 3-Benzyl-1-butyl-8-(furan-2-carbonyl)-1,4,8-triazaspiro[4,5]decan-2-one], under “Table III”, the inhibition at 1 µM came to 63%.

For the compound `CCCCN1C(=O)C(Cc2ccccc2)NC12CCN(C(=O)c1cc(C(F)(F)F)ccc1C(F)(F)F)CC2` (stereo not drawn) [Example 155, 3-Benzyl-8-(2,5-bis-trifluoromethylbenzoyl)-1-butyl-1,4,8-triazaspiro[4,5]decan-2-one], the inhibition at 1 µM (Table III) worked out at 74%.

Regarding `CC(C)C1NC2(CCN(C(=O)c3cccnc3Cl)CC2)N(Cc2ccccc2)C1=O` (stereo not drawn) [Example 157, 1-Benzyl-8-(2-chloropyridin-3-carbonyl)-3-isopropyl-1,4,8-triazaspiro[4,5]decan-2-one], the inhibition at 1 µM (Table III) was 64%.

`CCCCN1C(=O)C(CCSC)NC12CCN(C(=O)COCc1ccccc1)CC2` (stereo not drawn) [Example 159, 8-(2-Benzyloxyacetyl)-1-butyl-3-(2-methylsulfanylethyl)-1,4,8-triazaspiro[4,5]decan-2-one]: the inhibition at 1 µM (Table III) was found to be 40%.

Regarding `CCCCN1C(=O)C(CCSC)NC12CCN(C(=O)CCCOc1ccccc1)CC2` (stereo not drawn) [Example 161, 1-Butyl-3-(2-methylsulfanylethyl)-8-(4-phenoxybutyryl)-1,4,8-triazaspiro[4,5]decan-2-one], the inhibition at 1 µM (Table III) was determined as 39%.

As to `CSCCC1NC2(CCN(C(=O)c3cccnc3Oc3ccccc3)CC2)N(Cc2ccccc2F)C1=O` (stereo not drawn) [Example 163, 1-(2-Fluorobenzyl)-3-(2-methylsulfanylethyl)-8-(2-phenoxypyridin-3-carbonyl)-1,4,8-triazaspiro[4,5]decan-2-one], the inhibition at 1 µM (Table III) was 71%.

Take `CSCCC1NC2(CCN(C(=O)c3ccccn3)CC2)N(Cc2ccccc2F)C1=O` (stereo not drawn) [Example 170, 1-(2-Fluorobenzyl)-3-(2-methylsulfanylethyl)-8-(pyridin-2-carbonyl)-1,4,8-triazaspiro[4,5]decan-2-one]: the inhibition at 1 µM (Table III) is 46%.

Consider `CSCCC1NC2(CCN(C(=O)c3cccnc3Oc3ccccc3)CC2)N(Cc2ccccc2)C1=O` (stereo not drawn) [Example 171, 1-Benzyl-3-(2-methylsulfanylethyl)-8-(2-phenoxypyridin-3-carbonyl)-1,4,8-triazaspiro[4,5]decan-2-one], for which the inhibition at 1 µM (Table III) was found to be 62%.

Regarding `Cc1nc(C(F)(F)F)ccc1C(=O)N1CCC2(CC1)NC(C(C)C)C(=O)N2Cc1ccccc1` (stereo not drawn) [Example 178, 1-Benzyl-3-isopropyl-8-(2-methyl-6-trifluoromethylpyridin-3-carbonyl)-1,4,8-triazaspiro[4,5]decan-2-one], where the note is “Table III”, the inhibition at 1 µM turned out to be 49%.

Turning to `C#CCN1C(=O)C(Cc2ccccc2)NC12CCN(C(=O)c1ccco1)CC2` (stereo not drawn) [Example 186, 3-Benzyl-8-(furan-2-carbonyl)-1-prop-2-ynyl-1,4,8-triazaspiro[4,5]decan-2-one], the inhibition at 1 µM (Table III) was found to be 32%.

As for `CSCCC1NC2(CCN(C(=O)c3cccc4ccccc34)CC2)N(C)C1=O` (stereo not drawn) [Example 187, 1-Methyl-3-(2-methylsulfanylethyl)-8-(naphthalin-1-carbonyl)-1,4,8-triazaspiro[4,5]decan-2-one], the inhibition at 1 µM (Table III) stood at 47%.

`CCCCN1C(=O)C(Cc2ccccc2)NC12CCN(C(=O)COC)CC2` (stereo not drawn) [Example 190, 3-Benzyl-1-butyl-8-(2-methoxyacetyl)-1,4,8-triazaspiro[4,5]decan-2-one]: under “Table III”, the inhibition at 1 µM amounted to 43%.

As a reminder, the Km is the concentration of substrate that gives half-maximal velocity. The term inhibition denotes the drop in the measured response relative to a control, in per cent.
